Assay results taken from patent publication US9023987B2, “Cell-permeable peptide” (Seoul National University R&DB Foundation, priority 2010, dated 2015).

Experiments:
[1] = tested on: human mesenchymal stem cells (hMSC); assay: Cell permeability by fluorescence imaging (confocal scanning microscope); type: cell-based; details: FITC/fluorescence-labeled, FIG. 3A, FIG. 7
Procedure: The domains synthesized in Example 1 and Comparative Examples 1 and 2 were labeled with a fluorescent material in order to measure cell permeability. 10 equivalents of fluorescein isothiocyanate (FITC) was bound to N-terminals of the synthesized domains by using triethylamine (1 ml per 1 g of resin). The synthesis of the peptide was confirmed by measuring the molecular weight thereof through MALDI-TOF.
In order to measure the cell permeability of the cell permeable peptide-bone differentiation inducing sequence conjugate, after sterile slide glass was input in a 6-well plate and 2×10^4 human mesenchymal stem cells (hMSC) were plated in each well, the cells were cultured in a general medium for 20 hours (overnight incubation). Then the cells was cultured in an hMSC basal medium (MSCBM, LONZA, USA) containing 0.5% fetal bovine serum (FBS, GIBCO, USA) for 20 hours (overnight starvation). […] fluorescence labeled cell permeable peptide-bone differentiation inducing sequence conjugate and […] fluorescence labeled bone differentiation inducing sequence that were obtained by binding FITC (SIGMA, USA) N-terminals of the cell permeable peptide-bone differentiation inducing sequence conjugate synthesized by the method in Example 1 and the domain in Comparative Example 2 to synthesize the fluorescence label conjugate and fluorescence label domain, followed by isolation and purification, were injected into each well and washed with phosphate buffer solution (PBS) two times after 20 minutes and 80 minutes of injection. The resultants was observed using a confocal scanning microscope (IX 70, Olympus Co., Tokyo, Japan).

[2] = tested on: human mesenchymal stem cells (hMSC); assay: Cell differentiation ability by Alizarin red S staining; type: cell-based; details: 10 mM, hard tissue-forming medium, 14 days, compared with PBS; FIG. 4A a-c
Procedure: In order to confirm cell differentiation ability of the cell permeable peptide-bone differentiation inducing sequence conjugate by the amount of phosphorylated calcium, human mesenchymal stem cells (hMSC) were seeded in a 24-well plate at 1×10^3/well, and then treated with the cell permeable peptide-bone differentiation inducing sequence conjugate synthesized from Example 1 and the bone differentiation inducing sequence of Comparative Example 2 of […] for each, and then incubated in a hard tissue-forming medium for 14 days. The hard tissue-forming medium contained an MSCBM medium containing 15% FBS (fetal bovine serum), […] of L-ascorbic acid, 10^−7 M dexamethasone, 1% antibiotic-antimycotic solution, and 10 mM beta-glycerol phosphate. After completion of the incubation, the medium was removed, and then the cells were washed with phosphate buffer solution (PBS) twice. The cells were fixed using 90% ethanol at 4° C. for 15 minutes, followed by washing with distilled water twice, and then stained with 2% Alizarin red S Solution (pH 4.2; Alizarin red S powder, Junsei, JAPAN).

[3] = tested on: ALP, OCN, and RUNX2; assay: Bone differentiation marker genes by quantitative real-time PCR and electrophoresis; type: cell-based, human; details: EtBr agarose gel, compared with PBS; FIG. 4C
Procedure: In order to confirm cell differentiation ability of the cell permeable peptide-bone differentiation inducing sequence conjugate through bone tissue differentiation marker genes, human mesenchymal stem cells (hMSC) were seeded in each well of a 6 cm-dish at 1×10^5/well, and then incubated in a general medium for 20 hours (overnight) for cell stabilization. After 20 hours of incubation, the cells were treated with the cell permeable peptide-bone differentiation inducing sequence conjugate and 10 μm of the bone differentiation inducing sequence of Comparative Example 2 for 72 hours.
After that, the entire RNA was separated from the treated cells, using a Trizol® reagent (reagent for isolating RNA from cell and tissue samples) (Invitrogen Life Technologies, USA), according to the manufacturer's instructions, and the amount and purity of the entire RNA were measured by the spectrophotometer. […]
In order to carry out the quantitative real-time PCR, cDNA to be used as a template and primers were mixed, like in RT-PCR, and then 10 μl of SYBR® Green Premix Ex Taq (TaKaRa, JAPAN) was mixed therewith to prepare a reaction material. […] The CT value of each gene was […] the CT value for housekeeping GAPDH gene and the value calculated based on the negative control was taken, so that comparison in the degree of mRNA expression was conducted (Shin et al., (2007) Plant J. 49, 981-994).

“NH2-GAPPPADSAP-SSRKKNPNCRRH-C-COONH2 (H-GAPPPADSAPSSRKKNPNCRRHC-NH2; cysteine pairing not given here) [Example 1]” was tested. Which “intracellular fluorescence after 20 minutes (confocal)” value ([1]; 20 minutes) did it give?
Its value is “fluorescent particles were observed in the cytoplasm”.

What about the “intracellular fluorescence after 80 minutes (confocal)” value ([1]; 80 minutes) of the same substance?
Its value is “clearly observed in the cytoplasm and nucleus”.

And the “differentiation into osteoblast, Alizarin red S staining of phosphorylated calcium” value [2]?
Its value is “relatively strong staining degree of phosphorylated calcium”.

And the “bands of ALP, OCN, and RUNX2 PCR products (electrophoresis)” value [3]?
The value was “noticeably increased bands”.
